Read-outs that look alike come from different tables or passages of the source. Marks after values point to notes of the source that are not given here. Peptide text beside a SMILES is read from it. * marks the point of attachment. Cbz = O=C(OCc1ccccc1)*; PhAc = O=C(Cc1ccccc1)*
How the values were obtained:
[1] = tested on: West Nile virus NS2B/NS3 protease; conditions: cited from earlier work
Dengue and WNV titres = tested on: Dengue and WNV titres; set-up: method as in earlier work; conditions: cell-based assays of virus replication; ref 15 (Behnam et al.); read-out: EC50, reduction of Dengue and WNV titres; cited from earlier work
WNV NS2B/NS3 protease = WNV NS2B/NS3 protease (West Nile virus, UniProt P06935); test: In vitro NS2B/NS3 protease inhibition (fluorescent substrate Pyr-RTKR-AMC, progress curve method); type: biochemical; conditions: for percent of inhibition: inhibitor 100 µM, after 30 min incubation at 37 °C; for k2/Ki: Table 2, peptide phosphonates; for improvement in inhibitory potency after introduction of P2 Arg and P3 Lys: peptidyl derivative vs. simple Cbz-protected parent phosphonate
Description: For the initial screening, Cbz-protected aminophosphonates were assayed in 96 well microplates (Nunc™ F96 MicroWell™ White Polystyrene Plate) in the following protease buffer: 50 mM Tris, 1 mM Chaps, 20% glycerol, pH 8.5. WNV NS2B/NS3 protease (AnaSpec, Liege, Belgium; 20 nM) was pre-incubated with tested inhibitor (100 µM) in the protease buffer at 37 °C for 10 min prior an addition of the fluorescent substrate Pyr-RTKR-AMC (AnaSpec, Liege, Belgium; 20 µM). The progress of the reaction was monitored continuously (λex = 354 nm, λem = 442 nm) at 37 °C on a Spectra Max Gemini XPS spectrofluorometer (Molecular Devices, Sunnyvale, CA) for 30 min. […] In 96 well microplates narrowed concentration of inhibitors and constant substrate concentration (Pyr-RTKR-AMC, C = 20 µM, KM = 59 µM) were prepared. The enzyme solution was added and enzymatic reaction was monitored (Figure S1). Using a model for irreversible inhibition, in which the first order inactivation rate constant kobs is hyperbolic dependent from the inhibitor concentration Ki and k2/Ki values were calculated (equations (1–4) in supplementary material)[29]. Control progress curves in the absence of inhibitor were linear.
The inhibitory activity of the compounds was determined by the progress curve method. First the data from nonlinear progress curves with time dependent inhibitors were fit to eq.1 to obtain the first-order rate constant (kobs):
The second-order rate constants (k2/KI) and (KI)app values were calculated using hyperbolic regression according to equation 3: […]
KI values were calculated according to equation 3: […]

[2] = target: T1, Human Airway Trypsin-like Protease (HAT) (Homo sapiens, UniProt O60235); test: Control proteases inhibition assay, HAT protease; type: biochemical; conditions: inhibitor concentration 25 μM, after 30 min incubation at 37 °C
T1 construct: purchased R&D Systems, Minneapolis, MN
T1 sequence (O60235 1-418): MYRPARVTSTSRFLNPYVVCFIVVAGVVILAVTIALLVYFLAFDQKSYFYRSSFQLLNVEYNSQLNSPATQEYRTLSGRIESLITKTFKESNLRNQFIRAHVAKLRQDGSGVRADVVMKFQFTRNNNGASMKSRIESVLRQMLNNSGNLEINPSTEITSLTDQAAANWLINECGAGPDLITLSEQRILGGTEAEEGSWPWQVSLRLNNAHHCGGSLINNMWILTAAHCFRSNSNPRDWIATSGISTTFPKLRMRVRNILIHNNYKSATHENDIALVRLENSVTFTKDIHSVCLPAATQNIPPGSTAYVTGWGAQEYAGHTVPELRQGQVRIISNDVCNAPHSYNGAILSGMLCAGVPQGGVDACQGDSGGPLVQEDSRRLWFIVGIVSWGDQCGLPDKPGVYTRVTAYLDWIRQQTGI
Description: (§1) Bovine β-trypsin (AppliChem, Łódź, Poland), human cathepsin G (Biocentrum, Kraków, Poland) and Human Airway Trypsin-like Protease (HAT) (R&D Systems, Minneapolis, MN) were used as control proteases to screen the activity of NS2B/NS3 protease inhibitors (36–39) obtained in this study. Inhibitors were assayed in 96-well microplates in the 0.1 M HEPES, 0.5 M NaCl, 0.03%, pH 7.5 Triton X-100 (for bovine β-trypsin and cathepsin G). Bovine β-trypsin (15 nM), human cathepsin G (150 nM) or HAT protease (0.001 µg) was pre-incubated with tested inhibitor (25 µM) in the protease buffer at 37 °C for 10 min prior to the addition of the fluorescent substrate: Cbz-Arg-AFC (synthesised in-house according to the procedure described by Bissell[30]; 50 µM; λex = 400 nm, λem = 505 nm, for bovine β-trypsin); MeO-Suc-Ala-Ala-Pro-Val-AMC (Bachem, Bubendorf, Switzerland; 40 µM, λex = 340 nm, λem = 440 nm, for human cathepsin G) or Phe-Ser Arg-AMC (Bachem, Bubendorf, Switzerland; 40 µM, λex = 340 nm, λem = 440 nm, for HAT protease). The progress of the reactions was monitored continuously at 37 °C on a Spectra Max Gemini XPS spectrofluorometer for 20 min. Control curves in the absence of inhibitor were linear. The rate of the tested protease inhibition was calculated from the linear range of the plot.

Bovine β-trypsin = target: T2, Bovine β-trypsin (Bos taurus, UniProt P00760); test: Control proteases inhibition assay, trypsin; type: biochemical; conditions: inhibitor concentration 25 μM, after 30 min incubation at 37 °C
T2 construct: purchased AppliChem, Łódź, Poland
T2 sequence (P00760 24-246): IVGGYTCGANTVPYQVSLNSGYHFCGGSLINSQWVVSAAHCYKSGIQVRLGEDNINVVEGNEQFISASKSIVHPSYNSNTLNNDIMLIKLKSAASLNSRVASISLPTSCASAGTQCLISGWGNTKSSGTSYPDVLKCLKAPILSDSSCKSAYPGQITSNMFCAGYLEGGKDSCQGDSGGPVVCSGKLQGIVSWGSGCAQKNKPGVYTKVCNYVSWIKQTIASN
Description: as §1

human cathepsin G = target: T3, human cathepsin G (Homo sapiens, UniProt P08311); test: Control proteases inhibition assay, cathepsin G; type: biochemical; conditions: inhibitor concentration 25 μM, after 30 min incubation at 37 °C
T3 construct: purchased Biocentrum, Kraków, Poland
T3 sequence (P08311 21-255): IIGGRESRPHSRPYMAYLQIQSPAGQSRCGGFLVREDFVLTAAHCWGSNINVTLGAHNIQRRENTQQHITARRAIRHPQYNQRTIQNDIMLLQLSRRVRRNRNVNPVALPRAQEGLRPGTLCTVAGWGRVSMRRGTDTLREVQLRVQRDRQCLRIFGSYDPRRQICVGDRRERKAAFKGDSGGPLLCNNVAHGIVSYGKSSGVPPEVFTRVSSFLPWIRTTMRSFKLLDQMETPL
Description: as §1

[3] = Stability in assay buffer (HPLC analysis); type: physicochemical
Description: Stability in assay buffer. A stock solution of compound (38) (10 mM in acetonitrile) was added to the assay buffer (50 mM Tris, 1 mM Chaps, 20% glycerol, pH 8.5) to make a final concentration of 2 mg/mL and incubated at 37°C. The resulting mixture was subjected to HPLC analysis to determine compound stability using a Discovery® BIO Wide Pore C8 HPLC Column (250 mm × 4.6 mm, 10 μm) with a 1 mL/min flow rate, gradient 0−100% [0.05% TFA in acetonitrile] in [0.05% TFA in water] over a period of 15 min.

[4] = tripeptide aldehydes, ref 11 (Stoermer et al.)

WNV NS2B/NS3 protease, sequence (P06935 1502-1680): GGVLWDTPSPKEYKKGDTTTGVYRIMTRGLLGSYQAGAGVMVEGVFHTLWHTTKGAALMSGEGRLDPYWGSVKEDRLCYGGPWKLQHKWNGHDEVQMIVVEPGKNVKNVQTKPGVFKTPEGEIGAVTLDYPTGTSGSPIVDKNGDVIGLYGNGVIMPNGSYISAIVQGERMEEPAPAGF
WNV NS2B/NS3 protease, sequence (P06935 1419-1466): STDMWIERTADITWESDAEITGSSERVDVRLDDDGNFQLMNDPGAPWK

N=C(N)NCCC[C@@H](C=O)NC(=O)[C@H](CCCCN)NC(=O)[C@H](CCCCN)NC(=O)Cc1ccc(-c2ccccc2)cc1 [Compound 1]
Ki [1, 4]: 6 nM

N=C(N)NCCC[C@@H](C=O)NC(=O)[C@H](CCCCN)NC(=O)[C@H](CCCCN)NC(=O)Cc1ccccc1 [Compound 2] (PhAc-Lys-Lys-Arg-aldehyde)
Ki [1, 4]: 9 nM

N=C(N)NC1CCC(CNC(=O)[C@H](CCCCN)NC(=O)[C@H](CCCCN)NC(=O)Cc2ccc(Cl)c(Cl)c2)CC1 (some centres unmarked) [Compound 3]
Ki ([1]; ref 13 (Hammamy et al.)): 130 nM

NCCCC[C@H](NC(=O)c1ccc(/C=C2\SC(=O)N(CC3CCCCC3)C2=O)cc1)C(=O)N[C@@H](CCCCN)C(=O)N[C@H](C(N)=O)c1ccccc1 [Compound 4]
Ki ([1]; ref 14 (Bastos et al.)): 750 nM

N=C(N)NCCC[C@H](Nc1nccs1)C(=O)N[C@@H](CCCCN)C(=O)N[C@H](C(N)=O)c1ccc(OCc2ccc(C(F)(F)F)cc2)cc1 [Compound 5]
Ki ([1]; ref 15 (Behnam et al.)): 39 nM | EC50 (Dengue and WNV titres): 15500 nM

N=C(N)SCCCC(NC(=O)OCc1ccccc1)P(=O)(Oc1ccccc1)Oc1ccccc1 (centres unmarked) [Compound 8]
percent of inhibition (WNV NS2B/NS3 protease; substrate Pyr-RTKR-AMC 20 µM): 22%

NC(=O)CCC(NC(=O)OCc1ccccc1)P(=O)(Oc1ccccc1)Oc1ccccc1 (centres unmarked) [Compound 11, Cbz-Gln^P(OPh)2]
percent of inhibition (WNV NS2B/NS3 protease; substrate Pyr-RTKR-AMC 20 µM): 15%

N#Cc1ccc2cc(C(NC(=O)OCc3ccccc3)P(=O)(Oc3ccccc3)Oc3ccccc3)ccc2c1 (centres unmarked) [Compound 22]
percent of inhibition (WNV NS2B/NS3 protease; substrate Pyr-RTKR-AMC 20 µM): 2%

N=C(N)c1ccc2cc(C(NC(=O)OCc3ccccc3)P(=O)(Oc3ccccc3)Oc3ccccc3)ccc2c1 (centres unmarked) [Compound 23]
inhibition at 100 µM (WNV NS2B/NS3 protease; read-out: percent of inhibition): 12%

O=C(NC(c1ccc(-n2cccn2)cc1)P(=O)(Oc1ccccc1)Oc1ccccc1)OCc1ccccc1 (centres unmarked) [Compound 24, Benzyl ((4-(1H-pyrazol-1-yl)phenyl)(diphenoxyphosphoryl)methyl)carbamate]
percent of inhibition (WNV NS2B/NS3 protease; substrate Pyr-RTKR-AMC 20 µM): 5%

O=C(NC(c1ccc(-n2cnc3ccccc32)cc1)P(=O)(Oc1ccccc1)Oc1ccccc1)OCc1ccccc1 (centres unmarked) [Compound 25]
percent of inhibition (WNV NS2B/NS3 protease; substrate Pyr-RTKR-AMC 20 µM): 4%

CN1CCN(c2ccc(C(NC(=O)OCc3ccccc3)P(=O)(Oc3ccccc3)Oc3ccccc3)cc2)CC1 (centres unmarked) [Compound 26]
percent of inhibition (WNV NS2B/NS3 protease; substrate Pyr-RTKR-AMC 20 µM): 3%

O=C(NC(c1ccc(N2CCOCC2)cc1)P(=O)(Oc1ccccc1)Oc1ccccc1)OCc1ccccc1 (centres unmarked) [Compound 27]
percent of inhibition (WNV NS2B/NS3 protease; substrate Pyr-RTKR-AMC 20 µM): 1%

N=C(N)NCCC[C@H](NC(=O)[C@H](CCCCN)NC(=O)OCc1ccccc1)C(=O)NC(CCCCN)P(=O)(Oc1ccccc1)Oc1ccccc1 (stereo partly drawn) [Compound 36, Cbz-Lys-Arg-Lys^P(OPh)2]
percent of inhibition, HAT [2]: 2% | percent of inhibition, Trypsin (Bovine β-trypsin): 8%^a | Ki (WNV NS2B/NS3 protease): 8000 ± 900 nM | k2/Ki (WNV NS2B/NS3 protease; substrate Pyr-RTKR-AMC 20 µM): 5 520 M^−1s^−1 | improvement in inhibitory potency after introduction of P2 Arg and P3 Lys (WNV NS2B/NS3 protease): 69 fold | percent of inhibition, CatG (human cathepsin G): 2%

N=C(N)NCCCC(NC(=O)[C@H](CCCNC(=N)N)NC(=O)[C@H](CCCCN)NC(=O)OCc1ccccc1)P(=O)(Oc1ccccc1)Oc1ccccc1 (stereo partly drawn) [Compound 37, Cbz-Lys-Arg-Arg^P(OPh)2]
percent of inhibition, HAT [2]: 2% | percent of inhibition, Trypsin (Bovine β-trypsin): 7% | Ki (WNV NS2B/NS3 protease): 3000 ± 300 nM | k2/Ki (WNV NS2B/NS3 protease; substrate Pyr-RTKR-AMC 20 µM): 10 725 M^−1s^−1 | improvement in inhibitory potency after introduction of P2 Arg and P3 Lys (WNV NS2B/NS3 protease): 69 fold | percent of inhibition, CatG (human cathepsin G): 3%

N=C(N)NCCC[C@@H](NC(=O)[C@@H](CCCCN)NC(=O)OCc1ccccc1)C(=O)NC(Cc1ccc(NC(=N)N)cc1)P(=O)(Oc1ccccc1)Oc1ccccc1 (stereo partly drawn) [Compound 38, Cbz-Lys-Arg-(4-GuPhe)^P(OPh)2]
percent of inhibition, HAT [2]: no significant inhibition | inhibition at 25 µM ([2]; read-out: percent of inhibition, HAT): 5% | percent of inhibition, Trypsin (Bovine β-trypsin): no significant inhibition | inhibition at 25 µM (Bovine β-trypsin; read-out: percent of inhibition, Trypsin): 4% | inhibitor degradation ([3]; during enzyme inhibition assay time, assay buffer pH 8.5): ~ 1% | degradation of compound ([3]; over 6 hours, assay buffer pH 8.5, 37 °C): ~ 13% | % of initial inhibitor concentration ([3]; time 0.0 h, assay buffer pH 8.5, 37 °C): 100% | % of initial inhibitor concentration ([3]; time 0.5 h, assay buffer pH 8.5, 37 °C): 98,93% | % of initial inhibitor concentration ([3]; time 1.0 h, assay buffer pH 8.5, 37 °C): 98,12% | % of initial inhibitor concentration ([3]; time 1.5 h, assay buffer pH 8.5, 37 °C): 96,27% | % of initial inhibitor concentration ([3]; time 2.0 h, assay buffer pH 8.5, 37 °C): 95,19% | % of initial inhibitor concentration ([3]; time 2.5 h, assay buffer pH 8.5, 37 °C): 95,04% | % of initial inhibitor concentration ([3]; time 3.0 h, assay buffer pH 8.5, 37 °C): 93,35% | % of initial inhibitor concentration ([3]; time 3.5 h, assay buffer pH 8.5, 37 °C): 91,90% | % of initial inhibitor concentration ([3]; time 4.0 h, assay buffer pH 8.5, 37 °C): 91,11% | % of initial inhibitor concentration ([3]; time 4.5 h, assay buffer pH 8.5, 37 °C): 88,43% | % of initial inhibitor concentration ([3]; time 5.0 h, assay buffer pH 8.5, 37 °C): 86,99% | % of initial inhibitor concentration ([3]; time 5.5 h, assay buffer pH 8.5, 37 °C): 86,84% | % of initial inhibitor concentration ([3]; time 6.0 h, assay buffer pH 8.5, 37 °C): 86,73% | Ki (WNV NS2B/NS3 protease): 400 ± 30 nM | kinact/KI (WNV NS2B/NS3 protease; read-out: k2/Ki): 28300 M⁻¹ s⁻¹ | percent of inhibition, CatG (human cathepsin G): no significant inhibition | inhibition at 25 µM (human cathepsin G; read-out: percent of inhibition, CatG): 7%

N=C(N)NCCCC(C=O)NC(=O)C(CCCNC(=N)N)NC(=O)C(CCCCN)NC(=O)OCc1ccccc1 (stereo not drawn) [Compound 40, Cbz-Lys-Arg-Arg-H, reference compound] (Cbz-Lys-Arg-Arg-aldehyde; configuration not given here)
Ki (WNV NS2B/NS3 protease; Table 2, peptide phosphonates and reference aldehyde, substrate Pyr-RTKR-AMC 20 µM, read-out: Ki): 120 ± 20 nM

Reference: paper PMC6211275, “Phosphonate inhibitors of West Nile virus NS2B/NS3 protease” (Journal of Enzyme Inhibition and Medicinal Chemistry, 2018)
